Measured values as given in ChEMBL document CHEMBL1148419, “Novel P4 truncated tripeptidyl alpha-ketoamides as HCV protease inhibitors” (Bioorg Med Chem Lett, 2004).
Activity calls are given as the source filed them. No cut-off for these calls is given here.

Each molecule was assayed on Hepatitis C virus NS3 protease (Hepatitis C virus) (assay: Inhibitory activity against Protease using replicon assay in rats at 50 uM concentration). Details: Rattus norvegicus.

SMILES	inhibition
CCCC(NC(=O)[C@@H]1[C@H]2CCC(F)(F)[C@H]2CN1C(=O)[C@@H](NC(=O)OC(C)C)C(C)C)C(=O)C(=O)N[C@@H](C)c1ccccc1 (some centres not stated)	22%
CCCC(NC(=O)[C@@H]1[C@H]2CCC(F)(F)[C@H]2CN1C(=O)[C@@H](NC(=O)OC(C)C)C(C)(C)C)C(=O)C(=O)N[C@@H](C)c1ccccc1 (some centres not stated)	51%

Second part, the molecule after the results:

inhibition	SMILES
7%	CCCC(NC(=O)[C@@H]1[C@H]2CCC[C@H]2CN1C(=O)[C@@H](NC(=O)OC(C)C)C(C)C)C(=O)C(=O)N[C@@H](C)c1ccccc1 (some centres not stated)
inactive	CCCC(NC(=O)[C@@H]1[C@H]2CCC(F)(F)[C@H]2CN1C(=O)[C@@H](NC(=O)[C@H](O)C(C)C)C(C)C)C(=O)C(=O)NC1CC1 (some centres not stated)

These molecules were tested on Hepatitis C virus NS3 protease (Hepatitis C virus) (assay: Inhibitory activity against Protease using replicon assay in rats at 50 uM concentration; Not active). Details: Rattus norvegicus.

SMILES	inhibition
CCCC(NC(=O)[C@@H]1[C@H]2CCC[C@H]2CN1C(=O)[C@@H](NC(=O)[C@H](O)C(C)C)C(C)C)C(=O)C(=O)Nc1ccccc1 (some centres not stated)	inactive
CCCC(NC(=O)[C@@H]1[C@H]2CCC[C@H]2CN1C(=O)[C@@H](NC(=O)OC(C)C)C(C)(C)C)C(=O)C(=O)Nc1ccccc1 (some centres not stated)	inactive
CCCC(NC(=O)[C@@H]1[C@H]2CCC[C@H]2CN1C(=O)[C@@H](NC(=O)[C@H](O)C(C)C)C(C)C)C(=O)C(=O)NC1CC1 (some centres not stated)	inactive
